One test relates to U20S cells (ATCC HTB-96). The test is described as follows: Effect of cell cycle blocking agents on GFP fluorescence from cell cycle phase marker using transiently transfected cells. It is filed as cell-based. The following applies: U20S cells transiently transfected with cyclin B1 promoter/D-box/CRS-GFP reporter; 24 hours exposure; confocal scanning imager (FIG. 5). The protocol: U20S cells (ATCC HTB-96) were cultured in wells of a 96 well microtitre plate. Cells were transfected with a cell cycle reporter construct prepared according to Example 1, comprising a cyclin B1 promoter operably linked to sequences encoding the cyclin B1 D-box, the cyclin B1 CRS, and GFP in a pCORON4004 vector (Amersham Biosciences) using Fugene 6 (Roche) as the transfection agent.
Following 24 hours of culture, cells were exposed to the specific cell cycle blockers mimosine (blocks at G1/S phase boundary) or demecolcine (blocks in M phase). Control cells were exposed to culture media alone.
Cells were incubated for a further 24 hours and then analysed for nuclear GFP expression using a confocal scanning imager with automated image analysis (IN Cell Analysis System, Amersham Biosciences).

The next test relates to U2-OS cells. The test is described as follows: Effect of cell cycle inhibiting drugs on GFP expression levels, FACS analysis of stable EGFP reporter cell line. It is filed as cell-based. To be noted: 100 ng/ml demecolcine or 1 mM mimosine for 24 hours (FIG. 9). The text has this:
The green fluorescent protein reporter sequence in the vector described in example 1 was replaced with enhanced GFP (EGFP; Cormack, B. P. et al, Gene, (1996), 173, 33–38; BD Clontech) by standard methods. The EGFP gene is a brighter form of GFP containing the mutations F64L and S65T. In addition, EGFP contains codons that have been altered to optimise expression in mammalian cells. This new construct was transfected into U2-OS cells and a number of colonies were isolated by selection with geneticin followed by sorting of single cells using a fluorescence activated cell sorter.
The cells were prepared for FACS analysis by standard methods. Briefly the cells were fixed and permeabilised using CytoFix/CytoPerm (Becton Dickinson) according to the manufacturers procedures. The cells were then treated with 50 μg/ml RNAse and 0.4% Triton X-100 and counterstained with 100 μg/ml propidium iodide. The degree of propidium iodide staining is proportional to the amount of DNA in the cell and therefore a measure of the cell cycle phase of the cell. As expected, the degree of red propidium iodide staining and the amount of green GFP fluorescence appear to be proportional in the cells.
The cells prepared in Example 5 were grown in 25 cm^2 flasks and treated with either 100 ng/ml demecolcine (Sigma) or 1 mM mimosine (Sigma) for 24 hours. The cells were then fixed, permeabilised and stained with propidium iodide as described in example 5.

“Also recorded” adds a separate entry of the source.

Results on 2 compounds are retold here after patent publication US7235401B2, “Method for determining cell cycle position” (GE Healthcare UK Limited, priority 2001, dated 2007).

On to `NC(Cn1ccc(=O)c(O)c1)C(=O)O` (centres unmarked) [mimosine], for which the “nuclear GFP fluorescence compared to control cells” value in the test with U20S cells (ATCC HTB-96) is reported as “decreased fluorescence”. In the test on U2-OS cells, the “cell cycle phase of arrest (FACS, propidium iodide staining)” value (“cell cycle phase of arrest” below) is recorded as “partially blocked in G1/S; also recorded: arrested at the G1/S boundary” and the “relative green fluorescence intensity (FACS, FL1H)” value is on record as “relatively low green fluorescence”.

With `CN[C@H]1CCc2cc(OC)c(OC)c(OC)c2-c2ccc(OC)c(=O)cc21` [demecolcine], in the test with U20S cells (ATCC HTB-96), the “nuclear GFP fluorescence compared to control cells” value is recorded as “increased fluorescence”. In addition, in the test with U2-OS cells, the “cell cycle phase of arrest” value was “arrested in G2/M” and the “relative green fluorescence intensity (FACS, FL1H)” value is listed as “brighter than the cells that had been arrested at G1/S”. In the test with U2-OS cells (listed as colchicine), the “cell cycle phase of arrest” value is listed as “blocked in G2/M” and the “relative green fluorescence intensity (FACS, FL1H)” value is listed as “relatively high green fluorescence”.
